Data from patent US4863925A, “Cyclohexanedione derivative for hepatic disorders and a process for producing the same” (Nihon Nohyaku Co., Ltd., priority 1986, dated 1989).

Assays:
[1] = test system: hepatic disorder caused by carbon tetrachloride; assay: Effect of suppressing hepatic disorder caused by carbon tetrachloride (Test Example 1); assay type: in vivo, mice (dd-strain, male); design: key to Liver injury index: 0 = healthy, 2 = slight, 4 = evident injury, 6 = serious injury; conditions: 30 mg/kg p.o., 6 h before CCl4 0.05 ml/kg p.o., 24 h after CCl4, mean of five mice; for Liver injury index: 0 healthy, 2 slightly affected, 4 evidently observed injury, 6 serious injury; for P-GPT (plasma glutamic pyruvic transaminase activity): Reitman-Frankel, 2,000 or higher calculated as 2,000
Experimental: Effect of suppressing hepatic disorder caused by carbon tetrachloride. […] The animals were sacrificed 24 hours after the administration of carbon tetrachloride, and the extent of liver injury was examined. On the other hand, blood was collected from the animal at the time of the sacrifice, and centrifuged to obtain plasma. The plasma glutamic pyruvic transminase (GPT) activity was determined according to the method of Reitman-Frankel. The activity was expressed in terms of Karmen Units (K.U.). The conditions of the liver were expressed in terms of liver injury index as follows. |Liver injury index | Condition of liver |0 Healthy liver |2 Slightly affected |4 Evidently observed injury |6 Serious injury Mice were used in groups of five of test were represented by the mean value. When the GPT activity was 2,000 units or higher, or further determination was made, the activity was calculated as 2,000 units for reasons of convenience.

[2] = acute oral toxicity (LD50); conditions: in vivo, male rat
Experimental: For example, LD50 value (acute oral toxicity to male rat) of the compound No. 55 is more than 1,000 mg/kg.

Compound | Liver injury index [1] | P-GPT (plasma glutamic pyruvic transaminase activity) [1] [K.U.] | LD50 [2] [mg/kg]
COc1ccc(C2CC(=O)C(=C3SC4C(S3)N(C)CCN4C)C(=O)C2)cc1 (centres unmarked) [compound 55] | 0.3 | 107 | > 1000
COc1ccc(C2CC(=O)C(=C3SC4C(S3)N(C)CCN4C)C(=O)C2)cc1 (centres unmarked) [compound 122] | 1.5 | 231 | –
